Reference: patent US4960908A, “Isoflavone derivatives, salts thereof, and oncostatic and immunosuppressive agents” (Yamanouchi Pharmaceutical Co., Ltd., priority 1985, dated 1990)
Values after ≈ are worked out from the molar mass of the structure shown. Where a name gives a salt, the structure may show the parent alone.

What was measured:
[1] = biological target: tyrosine-specific protein kinase derived from Rous sarcoma virus (src gene pp60^src) (Rous sarcoma virus (strain Schmidt-Ruppin A), UniProt P00524); test: Inhibitory action against tyrosine-specific protein kinase activity; format: biochemical
tyrosine-specific protein kinase derived from Rous sarcoma virus (src gene pp60^src), sequence (P00524 2-526): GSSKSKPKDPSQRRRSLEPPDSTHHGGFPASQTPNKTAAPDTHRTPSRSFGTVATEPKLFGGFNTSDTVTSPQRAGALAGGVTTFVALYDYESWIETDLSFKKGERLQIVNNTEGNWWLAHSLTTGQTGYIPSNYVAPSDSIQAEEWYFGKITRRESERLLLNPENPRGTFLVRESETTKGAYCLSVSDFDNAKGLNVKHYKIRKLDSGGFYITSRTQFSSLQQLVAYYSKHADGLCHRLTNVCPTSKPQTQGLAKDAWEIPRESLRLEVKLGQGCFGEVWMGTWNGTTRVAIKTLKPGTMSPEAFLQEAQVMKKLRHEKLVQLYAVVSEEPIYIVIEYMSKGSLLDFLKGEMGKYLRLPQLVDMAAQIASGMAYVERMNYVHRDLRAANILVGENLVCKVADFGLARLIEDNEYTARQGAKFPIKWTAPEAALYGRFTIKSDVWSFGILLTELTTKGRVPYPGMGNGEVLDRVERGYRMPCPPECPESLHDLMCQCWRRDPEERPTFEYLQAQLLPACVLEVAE
Method: The inhibitory action against tyrosine-specific protein kinase activity of the compounds of this invention was measured according to the method described below using tyrosine-specific protein kinase derived from Rous sarcoma virus (src gene pp60^src).
Measurement of tyrosine-specific protein kinase activity (src gene pp60^src derived from Rous sarcoma virus) (refer to M. S. Colet, R. L. Ericson: Proceeding of the National Academy of Sciences of U.S.A., 75, 2021-2024, 1978).
3Y1 cells (fibroblasts derived from fetal rat kidney) transformed by Rous sarcome virus (RSV) were cultured, the cultured cells were collected and washed, RIPA buffer solution [containing 0.5% NP40, 0.1% sodium deoxycholate, 50 mM Tris-HCl (pH 7.2), 1 mM phenylmethylsulfonyl fluoride (PMSF) and 0.15M NaCl] was added to the collected cells, the mixture was allowed to stand at 0° C. for 30 minutes to effect solubilization, and the resulting mixture was centrifuged (100,000× g, 20 minutes). To the supernatant thus collected, was added antiserum obtained from a rabbit cancered by inoculation of RSV, the mixture was incubated at 0° C. for 30 to 60 minutes to cause pp60^src to react with antibody, and the immune complex was isolated by mixing with protein A/Sepharose-4B (Pharmacia) and washed with RIPA buffer. The total complex thus obtained (pp60^src /antibody/protein A/Sepharose-4B) was treated in a solution containing 20 mM Pipes/NaOH (pH 7.2), 5 mM MgCl2, 1 mM DTT and 10 μM [γ-^32 p]ATP (2 mCi/mMol) at 30° C. for five minutes to effect protein kinase reaction, which was terminated by addition a terminating solution containing SDS followed by boiling for three minutes. The reaction mixture was subjected to electrophoresis on 8% SDS/polyacrylamide gel and then to autoradiography, and the radioactivity of cut-out pp60^src band was measured on a liquid scintillation counter, thus quantifying the protein kinase reaction and calculating IC50 value.

RSV-3Y1 cells = test: Inhibitory action against the growth of tumor cells (RSV-3Y1 cells); format: cell-based; conditions: Rattus norvegicus, live cells counted after 1, 2, 3 and 4 days using trypan blue, read-out: IC50, Inhibition against the growth of RSV-3Y1
Method: The inhibitory action of the compounds of this invention against the growth of tumor cells was examined by using cells of rats transformed by Rous sarcoma virus (RSV-3Y1 cells).
The inhibitory actions of the compounds of Examples 1 through 17 against the tyrosine-specific protein kinase activity and against the growth of RSV-3Y1 cells were measured according to the methods described earlier.

[2] = test system: antibody-forming cells (ovine erythrocytes immunization); test: Immunosuppressive action: antibody-formation inhibition (hemolytic plaques, antibody-forming cells in the spleen); format: in vivo, male ddy mouse; conditions: abdominal injection, once a day over four days, mouse
Method: The spleen was taken out five days after immunization, and the number of antibody-formingcells contained in it was measured as follows according to the method of Cunningham [Cunningham A. J.: Nature, 207, 1106 (1965)]. The splenetic cells were suspended in Eagle's MEM (Nissui Pharmaceutical), ovine erythrocytes and guinea-pig complement were added to this suspension, the resulting mixture was put in a Cunningham chamber (with its both ends sealed with paraffin) and incubated at 37° C. for 90 minutes, and the number of hemolytic plaques (a) (the number of antibody-forming cells) was counted.
Similarly, the number of hemolytic plaques (b) was measured with a mouse not injected with the compound of this invention (control). The antibody-formation inhibition rate was calculated according to the following equation: [formula]

[3] = reported in J.A.C.S. (page 3447, 1951); cited from earlier work
[4] = 5 mg/Kg for each administration
[5] = 25 mg/Kg for each administration

Row | Structure (SMILES) | IC50 [1] [µM] | IC50 (RSV-3Y1 cells) [µg/mL] | other results
1 | CCOC(=O)C(=O)Oc1ccc(-c2c(C(=O)OCC)oc3cc(O)cc(O)c3c2=O)cc1 [Example 1, ethyl 4'-ethoxalyloxy-5,7-dihydroxy-2-isoflavonecarboxylate] | 2.26 | > 100 | Antibody-formation inhibition rate ([2]; 1 mg/Kg for each administration): 14.4%; Antibody-formation inhibition rate [2, 4]: 28.7%; Antibody-formation inhibition rate [2, 5]: 40.0%; Antibody-formation inhibition rate ([2]; 50 mg/Kg for each administration): 75.8%
2 | COc1ccc(-c2c(CN(C)C)oc3cc(O)cc(O)c3c2=O)cc1 [Example 2, 2-(dimethylaminomethyl)-5,7-dihydroxy-4'-methoxyisoflavone hydrochloride] | > 293 | 18 | 
3 | COc1ccc(-c2c(CNC3CCCCC3)oc3cc(O)cc(O)c3c2=O)cc1 [Example 3, 2-(Cyclohexylaminomethyl)-5,7-dihydroxy-4'-methoxyisoflavone hydrochloride] | > 253 | 16 | 
4 | COc1ccc(-c2c(CNCCO)oc3cc(O)cc(O)c3c2=O)cc1.Cl [Example 4, 5,7-Dihydroxy-2-[(2-hydroxyethylamino)methyl]-4'-methoxyisoflavone hydrochloride] | > 254 | > 100 | 
5 | O=c1c(-c2ccc(O)cc2)c(CN2CCCCC2)oc2cc(O)cc(O)c12 [Example 5, 4',5,7-trihydroxy-2-piperidinomethylisoflavone] |  | 9.5 (≈ 25.9 µM) | 
6 | O=c1c(-c2ccc(O)cc2)c(CNC2=NCCS2)oc2cc(O)cc(O)c12 [Example 6, 4',5,7-Trihydroxy-2-[(2-thiazolin-2-ylamino)methyl]isoflavone] | 39 | > 100 | 
7 | NC(=O)c1oc2cc(O)cc(O)c2c(=O)c1-c1ccc(O)cc1 [Example 7, 4',5,7-trihydroxy-2-isoflavonecarboxamide] |  | > 100 | 
8 | CNC(=O)c1oc2cc(O)cc(O)c2c(=O)c1-c1ccc(O)cc1 [Example 8, 4',5,7-trihydroxy-N-methyl-2-isoflavonecarboxamide] | 45.8 | > 100 | 
9 | O=C(NCCO)c1oc2cc(O)cc(O)c2c(=O)c1-c1ccc(O)cc1 [Example 9, 4',5,7-trihydroxy-N-(2-hydroxyethyl)-2-isoflavonecarboxamide] | 42 | > 100 | 
10 | CSCc1oc2cc(O)cc(O)c2c(=O)c1-c1ccc(O)cc1 [Example 10, 4',5,7-trihydroxy-2-(methylthiomethyl)isoflavone] |  | 20 (≈ 60.5 µM) | 
11 | O=c1c(-c2ccc(O)cc2)c(CSC2=NCCS2)oc2cc(O)cc(O)c12 [Example 11] |  | 20 (≈ 49.8 µM) | 
12 | CCOC(=O)CSCc1oc2cc(O)cc(O)c2c(=O)c1-c1ccc(O)cc1 [Example 12, Ethyl [[(4',5,7-trihydroxy-2-isoflavonyl)methyl]thio]acetate] |  | > 100 | Antibody-formation inhibition rate [2, 4]: 25.3%; Antibody-formation inhibition rate [2, 5]: 50.0%
13 | O=c1c(-c2ccc(O)cc2)c(CSCC(O)CO)oc2cc(O)cc(O)c12 (stereo not drawn) [Example 13, 2-[[(2,3-Dihydroxypropyl)thio]methyl]-4', 5,7-trihydroxyisoflavone] | 10.2 | > 100 | Antibody-formation inhibition rate [2, 4]: 27.0%; Antibody-formation inhibition rate [2, 5]: 76.6%
14 | O=C(O)CCSCc1oc2cc(O)cc(O)c2c(=O)c1-c1ccc(O)cc1 [Example 14] | 25.7 | 90 (≈ 232 µM) | 
15 | COC(=O)c1oc2cc(O)cc(O)c2c(=O)c1-c1ccc(O)cc1 [Example 15] |  | 60 (≈ 183 µM) | 
16 | CC(C)OC(=O)c1oc2cc(O)cc(O)c2c(=O)c1-c1ccc(O)cc1 [Example 16, isopropyl 4',5,7-trihydroxy-2-isoflavonecarboxylate] |  | 25 (≈ 70.2 µM) | 
17 | COCCOC(=O)c1oc2cc(O)cc(O)c2c(=O)c1-c1ccc(O)cc1 [Example 17, Methoxyethyl 4',5,7-trihydroxy-2-isoflavonecarboxylate] | 16.1 | 60 (≈ 161 µM) | 
18 | O=c1c(-c2ccc(O)cc2)coc2cc(O)cc(O)c12 [genistein, 5,7,4'-trihydroxyisoflavone] |  |  | estrogenic action [3]: weak estrogenic action
